“Also recorded” adds a separate entry of the source.
Columns and labels:
[1] = test system: platelets and endothelium in LPS-stimulated lung-on-a-chip (PAR-1); experiment: Platelet-endothelial dynamics (P-E) in LPS-stimulated lung-on-a-chip with PM2; type: cell-based, human
From the text: (§1) Specifically, the analysis includes a method to quantitate platelet function in flow chambers and microfluidic devices that has been primarily limited to analyzing platelet adhesion on bare collagen surfaces. To analyze platelet-endothelial dynamics that will act as a robust readout of physiologically-relevant clotting, an automated imaging program creates an image time-series, K(x, y, t), containing a 10-frame panorama in space. Images are acquired at a frame rate of 2 panoramic images per minute, for a total time of 15 minutes. A non-dimensional stochastic index is derived to quantitate platelet endothelial dynamics (“P-E”), which is the interpercentile range of a coefficient of variance of the image time-series: P-E=range(CV(K(x,y,t) (1) A feature of this analytical readout is that instead of an “ensemble averaging,” the method incorporates the cell-surface interactions at the pixel level and quantitates statistical “dispersion” of interactions.
(§2) After plasma treatment of the microfluidic devices, the two chambers are pre-treated with 10% (3-aminopropyl)-trimethoxysilane (APTMES, e.g., from Sigma) in 100% anhydrous alcohol (e.g., from Sigma) for 10-20 minutes. The chambers are flushed sequentially with 70% ethanol in water and 100% ethanol, and then dried at 60-80° C. for two hours. Then, a mixture of rat tail collagen I (100 μg ml^−1 in PBS, from BD Biosciences) and fibronectin (e.g., 30 μg/ml in PBSm, from BD Biosciences) is introduced in both chambers of the microfluidic device. The microfluidic device is incubated at 37° C. for at least 2 hours before flushing with PBS or EGM-2 cell culture media.
(§3) Some of the microfluidic devices are used with collagen coating alone (without cells). In other devices, HUVECs (e.g. from Lonza) are cultured in Endothelial Growth Medium-2 (EGM-2, from Lonza) and used between certain passages. The cells (5-10×10^6 cells/ml) are introduced into the collagen-coated channels and incubated for 20 minutes at 37° C. to promote cell attachment before a second similar HUVEC suspension is, then, introduced. The microfluidic devices are incubated upside down for an additional 20 minutes to seed the cells on the ceiling and walls of the lower chamber.
The lower chamber is then flushed with EGM-2 and, then, a suspension of primary alveolar epithelial cells (e.g., from ScienCell Research Labs, Carlsbad, Calif.; 5-6×10^6 cells ml^−1) is introduced into the top chamber of the device. After a few hours, the top and bottom chambers are flushed with their respective media, and the microfluidic devices are incubated at 37° C. under 5% CO2 for 3 days (with media being replaced each day once). […]

[2] = test system: primary alveolar epithelial cells (AE) and endothelial cells with whole blood; experiment: Lung-on-a-chip stimulated with TNF-α or LPS: vascular ICAM-1, P-E, clots, gap junctions; type: cell-based, human
From the text: as §1, §2, §3
The lower chamber is then flushed with EGM-2 and, then, a suspension of primary alveolar epithelial cells (e.g., from ScienCell Research Labs, Carlsbad, Calif.; 5-6×10^6 cells ml^−1) is introduced into the top chamber of the device. After a few hours, the top and bottom chambers are flushed with their respective media, and the microfluidic devices are incubated at 37° C. under 5% CO2 for 3 days (with media being replaced each day once). On day 4, the bottom vascular chamber is set on perfusion of EGM-2 media (e.g., 30 μL hr^−1; 0.5% fetal bovine serum) to provide shear to the HUVEC vessel chamber and a continuous supply of fresh media.
On day 6, the epithelial cell media in the top chamber is aspirated to create the air-liquid interface of the alveoli. Hereon, the cell culture continues for another 6-8 days, after which, in some cases, the top chamber is supplemented with 0, 5, or 100 ng ml^−1 TNF-α in PBS (e.g., from Sigma) overnight or LPS (e.g., 100 ng ml^−1 of E. Coli, from Sigma,) for 2 hours to cause cell activation. The LPS is sonicated in ultrasonic bath for about 20-30 minutes before introducing into the microfluidic device. After stimulation, the top chamber is clamped, the bottom chamber is rinsed with culture media, a reservoir cut from a 3 ml slip-tip syringe (e.g., from BD) is inserted on one end of the lower chamber, and a 1/16-inch male luer connector (e.g., from Qosina Corp) is inserted on the other end of the lower chamber.
When analyzing the formation of fibrin, blood samples re added with 15 μg ml^−1 of fluorescently labeled fibrinogen (e.g., Alexa 488 from Invitrogen). […]

C57BL/6J mice = experiment: Mouse laser injury model of thrombosis and lung histology after LPS; type: in vivo
Experimental: In the above described techniques, C57BL/6J mice (about 8-12 weeks old) are used. For example, the mice are purchased from the Jackson Laboratory (Bar Harbor, Me.). Animal care and experimental procedures are performed in accordance with and under approval of the Beth Israel Deaconess Medical Center (“BIDMC”) Institutional Animal Care and Use Committee.
LPS is isolated from Escherichia coli serotype 0111:B4 (e.g., from Sigma-Aldrich, St Louis, Mo.). The anti-platelet antibody CD42b conjugated to Dylight649 is purchased, for example, from Emfret Analytics (Eibelstadt, Germany).
A laser-induced injury model of thrombosis is optionally used to monitor thrombosis formation in cremaster arterioles and venules in response to intraperitoneal injection of LPS (e.g., 10 mg kg^−1) or vehicle (e.g., physiological saline solution). Intravital microscopy of the cremaster microcirculation is performed, with injury to a cremaster arteriolar (e.g., 30-50 μm diameter) vessel wall being induced with a Micropoint Laser System (e.g., from Photonics Instruments, Chicago, Ill.). The Micropoint Laser System is focused through a microscope objective, parfocal with the focal plane and tuned to 440 nm. Data is captured digitally in a single fluorescence channel at 647/670 nm. Data acquisition is initiated both prior to and following a single laser pulse for each injury. Images are captured using a CCD camera (e.g., from Hamamatsu) at frame rates of 1/0.2 s^−1 and 1/0.5 s^−1, for a total of 240 seconds. The microscope system is controlled and images are analyzed using Slidebook (e.g., from Intelligent Imaging Innovations, Denver, Colo.). Anti-platelet antibodies re infused into the mice prior to vessel wall injury.
Histology Lungs are harvested in 4% paraformaldehyde. Following overnight incubation, lungs re transferred to 70% ethanol. Paraffin-embedded lungs are sectioned and stained with Hematoxylin and eosin […] or Masson's Trichome stain (MTS). This work is done by the histology and microscopy core at BIDMC.

Row | Compound | platelet-endothelial dynamics (P-E) ([1]; PM2 30 μM added to blood alone, AE side stimulated with LPS) | clotting and platelet-endothelial dynamics (P-E) ([1]; PM2 30 μM added to endothelial cell culture medium, AE side stimulated with LPS 100 ng/ml) | P-E and thrombotic activity ([1]; PM2 added to both endothelium and platelets, AE side stimulated with LPS) | overall effect of PM2 in LPS-stimulated lung-on-a-chip ([1]; model of acute lung dysfunction, whole blood perfusion) | platelet-endothelial dynamics (P-E) ([2]; LPS in the absence of AE) | gap junctions ([2]; LPS in the presence of AE) | thrombus formation ([2]; LPS stimulation of endothelium alone) | endothelial inflammation (vascular ICAM-1) ([2]; LPS stimulation over the AE) | platelet-endothelial dynamics (P-E) ([2]; LPS stimulation over the AE) | thrombus formation (platelet aggregates, fibrin) in the lumen ([2]; LPS-stimulated device containing AE) | gap junctions ([2]; blood vessel alone stimulated with LPS) | vascular ICAM-1 ([2]; blood vessel alone stimulated with LPS for 2 hours (no AE)) | lung histology (C57BL/6J mice; LPS injection) | increase in P-E in cremaster artery and vein (C57BL/6J mice; laser injury plus LPS) | platelet-endothelial interactions / thrombosis in cremaster artery or vein (C57BL/6J mice; systemic LPS alone (10 mg kg^-1 intraperitoneal))
1 | CCCC(=O)Nc1cccc(NC(=O)c2ccccc2Br)c1 [PM2, parmodulin 2] | reduction of P-E | no significant clotting occurs | completely inhibits the P-E and thrombotic activity | endothelial cytoprotective effect; also recorded: cytoprotective and anti-thrombotic effect |  |  |  |  |  |  |  |  |  |  | 
2 | lipopolysaccharide [LPS] |  |  |  |  | near absent | significantly increase | does not cause thrombus formation | inflamed | significantly increases | large platelet aggregates are formed along with significant fibrin in the lumen; also recorded: vascular dysfunction and rapid clotting | not affected | no significant increase in ICAM-1 | lung injury and pulmonary thrombosis; also recorded: causes clotting in the lung | further exacerbated | does not induce any platelet-endothelial interactions; also recorded: does not cause thrombosis in a cremaster artery or vein

Reference: US10732172B1, “Methods, systems, and compositions for determining blood clot formation, and uses thereof” (President and Fellows of Harvard College, priority 2015, dated 2020)
